Assay results: the NIST ThermoML archive (doi:10.1016/j.fluid.2014.08.014)
Numbers after ± are expanded uncertainties.

Assay: refractive index (Na D-line) (dimensionless)
Details: 293.15 K; 101.33 kPa; Liquid; Standard Abbe refractometry

SMILES | refractive index
O [water] | 1.3328 ± 0.0005
CCO [ethanol] | 1.3616 ± 0.0005
CCCCOC(C)=O [butyl ethanoate] | 1.3951 ± 0.0005
CC(C)(C)O [2-methylpropan-2-ol] | 1.3881 ± 0.0005
CC(C)CO [2-methyl-1-propanol] | 1.3955 ± 0.0005
